Among the data in publication PMC4510386, “Transglycosylation Activity of Glycosynthase Mutants of Endo-β-N-Acetylglucosaminidase from Coprinopsis cinerea” (PLoS ONE, 2015) are Km values, retold here.

In the experiment the target is T1, Endo-CC1 (Coprinopsis cinerea, UniProt A8P7P2).
T1 construct: gene CC1G_11102; full-length cDNA, 787 residues, His6-tagged, pET23b NdeI/XhoI, E. coli BL21-CodonPlus (DE3), HisTrap purified
In words: HPLC of Dns-Asn-GlcNAc release, Lineweaver-Burk. The class given is biochemical. The note with it: 100 mM phosphate pH 7.5, 37 C; hydrolysis.

For orientation: Km means the concentration of substrate that gives half-maximal velocity.

T1 sequence (A8P7P2 entry or part of it): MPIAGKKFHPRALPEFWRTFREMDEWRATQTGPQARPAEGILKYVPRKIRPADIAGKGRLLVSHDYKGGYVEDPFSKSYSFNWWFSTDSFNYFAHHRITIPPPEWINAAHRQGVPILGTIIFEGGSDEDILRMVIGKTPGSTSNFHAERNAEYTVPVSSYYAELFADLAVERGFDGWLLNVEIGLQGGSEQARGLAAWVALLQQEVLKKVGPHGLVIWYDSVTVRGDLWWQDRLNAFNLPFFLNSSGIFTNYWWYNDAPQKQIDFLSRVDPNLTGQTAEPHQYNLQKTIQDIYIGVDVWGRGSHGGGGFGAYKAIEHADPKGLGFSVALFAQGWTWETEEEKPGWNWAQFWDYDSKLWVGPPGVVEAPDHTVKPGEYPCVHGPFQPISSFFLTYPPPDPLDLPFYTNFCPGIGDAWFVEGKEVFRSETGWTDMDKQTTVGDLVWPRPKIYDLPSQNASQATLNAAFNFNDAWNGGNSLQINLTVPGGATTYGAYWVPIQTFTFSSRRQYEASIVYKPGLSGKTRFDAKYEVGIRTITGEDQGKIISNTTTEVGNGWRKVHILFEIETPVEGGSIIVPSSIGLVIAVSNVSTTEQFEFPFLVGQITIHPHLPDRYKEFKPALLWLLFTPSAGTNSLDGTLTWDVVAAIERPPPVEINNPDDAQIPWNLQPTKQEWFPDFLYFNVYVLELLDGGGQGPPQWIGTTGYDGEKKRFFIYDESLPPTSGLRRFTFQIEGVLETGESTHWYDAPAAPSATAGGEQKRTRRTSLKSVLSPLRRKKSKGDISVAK

Regarding Dns-SG, the Km amounted to 1900 µM.
